≈ marks a conversion by molar mass, not a printed value. Where two headings read alike, the source gives them in different places.
Key:
VZV strain Ellen = test: VZV antiviral (ELISA) assay in human foreskin fibroblast cells; type: cell-based, varicella-zoster virus
Procedure: VZV antiviral (ELISA) assay
For the generation of stock VZV to be used in the assay, VZV strain Ellen (ATCC #VR-1367) is used to infect human foreskin fibroblast (HFF) cells at low multiplicity (less than 0.1) and incubated overnight at 37°C in 5% CO2. After the overnight incubation, the mixture of uninfected and VZV-infected HFF infected cells are then harvested and added to each well of 96-well plates (3.5x10^4 cells in 100 µl DMEM supplemented with 2% FBS) which contain test compound or the reference standard drug control (in 100µl DMEM supplemented with 2% FBS per well). These cells are incubated for three days at 37°C in 5% CO2, then fixed for ELISA assay. The primary antibody is murine anti-VZV glycoprotein II monoclonal antibody (Applied Biosystems, Inc. #13-145-100) and the secondary antibody is goat anti-mouse IgG linked to β-galactosidase. Thus the extent of viral replication is determined by assessing β-galactosidase activity by quantifying the generation of the 4-methyl umbelliferone fluorescent cleavage product after addition of the methyl umbelliferyl-β-D-galactoside (Sigma #M1633) substrate on a microfluorimeter (365nm for excitation and 450nm for emission). Antiviral activity (IC50) of the test compound is determined by comparing the flourescence obtained in absence of compound to that obtained in the presence of compound.

HSV-1 = test: HSV antiviral (ELISA) assay in Vero cells; type: cell-based, herpes simplex virus type 1; conditions: for IC50: read-out: IC50 (ug/ml) HSV
Procedure: HSV antiviral (ELISA) assay
Vero cells (ATCC #CCL-81) are plated on 96-well tissue culture plates at 3.5x10^4 cells per 100µl tissue culture DMEM (Dulbecco's modified Eagle media) supplemented with 2% fetal bovine serum (FBS) in each well. After overnight incubation @ 37°C (in 5% CO2) and 30 minutes prior to infection with HSV-1 (multiplicity of infection equal to 0.006), cells are either untreated, or treated with test compound (multiple concentrations) or reference standard drug control. After approximately 24 hours post-infection incubation @ 37°C (in 5% CO2), cells are fixed for ELISA assay. The primary antibody is murine anti-HSV glycoprotein D monoclonal primary antibody and the secondary antibody is goat anti-mouse IgG linked to β-galactosidase. Thus the extent of viral replication is determined by assessing β-galactosidase activity by quantifying the generation of the 4-methyl umbelliferone fluorescent cleavage product after addition of the methyl umbelliferyl-β-D-galactoside (Sigma #M1633) substrate on a microfluorimeter (365nm for excitation and 450nm for emission). Antiviral activity (IC50) of the test compound is determined by comparing the flourescence obtained in absence of compound to that obtained in the presence of compound.

[1] = test system: HCMV recombinant mutant virus; test: microbe, parasite or virus in culture; type: cell-based, human cytomegalovirus; conditions: for IC50: Human betaherpesvirus 5, read-out: IC50 (ug/ml) HCMV
Text: Microtiter plate assay. Ninety-six well plate cultures of human foreskin fibroblasts are infected in the presence of inhibitor compound with a HCMV recombinant mutant virus whose genome contains the prokaryotic beta-glucuronidase gene (Jefferson, R. A., S. M. Burgess, and D. Hirsh. 1986. Beta-glucuronidase from Escherichia coli as a gene fusion marker. Proc. Natl. Acad. Sci. USA 83:8447-8451) whose expression is controlled by a viral promoter. An example of such a virus is RV145 (Jones, T. R., V. P. Muzithras, and Y. Gluzman. 1991. Replacement mutagenesis of the human cytomegalovirus genome: US10 and US11 gene products are nonessential. J. Virol. 65:5860-5872). Since it is under the control of a viral promoter, beta-glucuronidase expression is an indirect indicator of growth and replication of HCMV in this assay. At 96 hours post-infection, the infected cell lysates are prepared (using 50mM sodium phosphate [pH7.0] containing 0.1 % Triton X-100 and 0.1% sarkosyl) and assayed for beta-glucuronidase activity using a substrate for the enzyme which when cleaved yields either a product which can be measured colorimetrically in a spectrophotometer or fluorescently in a microfluorimeter. Examples of such substrates are p-nitrophenyl-beta-D-glucuronide and methylumbelliferylglucuronide, respectively. The presence of an antiviral compound is indicated by the reduced expression of the HCMV genome resident beta-glucuronidase gene, compared to the absence of inhibitor. […] Data from this assay generated using varying amounts of inhibitor compound is also used to estimate the IC50 of an inhibitor compound.

[2] = Human alphaherpesvirus 3, HFF, read-out: IC50 (ug/ml) VZV
[3] = Human alphaherpesvirus 3; VZV strain Ellen in HFF cells; read-out: IC50 (ug/ml) VZV
[4] = Human alphaherpesvirus 1, HSV-1 in Vero cells
[5] = Human alphaherpesvirus 3, Fibroblast; read-out: % inhibition 10 ug/ml VZV

With “(5H,11H-Benzo[e]pyrrolo[1,2-a][1,4]diazepin-10-yl)-(2-chloro-4-imidazol-1-yl-phenyl)-methanone [Example 322]” the “% inhibition 10 ug/ml VZV” value (VZV strain Ellen; 10 ug/ml) was 108%, the “IC50 (ug/ml) VZV” value (VZV strain Ellen; VZV strain Ellen in HFF cells) was 8 µg/mL and the “IC50 (ug/ml) HSV” value (HSV-1; HSV-1 in Vero cells) was 4 µg/mL. For the same compound, the “IC50 (ug/ml) HCMV” value ([1]; HCMV, the table does not say which HCMV assay) was 7 µg/mL.
`Cc1cc(NC(=S)NC(C)c2ccc(C#N)cc2)ccc1NC(=O)c1ccccc1F` (stereo not shown) [Example 1047, N-(4-{3-[1-(4-Cyano-phenyl)-ethyl]-thioureido}-2-methyl-phenyl)-2-fluoro-benzamide] was tested, and the IC50 (VZV strain Ellen; [2]) was 0.63 µg/mL (≈ 1.46 µM), the IC50 (HSV-1; Human alphaherpesvirus 1, Vero) was over 10 µg/mL and the IC50 [1] was 6.1 µg/mL (≈ 14.1 µM).
For `CC(NC(=S)Nc1ccc(NC(=O)c2ccccc2F)c(OCC#N)c1)c1ccc(F)cc1` (stereo not shown) [Example 1062, 2-Fluoro-N-[4-{3-[1-(4-fluoro-phenyl)-ethyl]-thioureido}-2-(2-nitrilo-ethoxy)-phenyl]-benzamide], the IC50 (VZV strain Ellen; [3]) was 0.33 µg/mL (≈ 0.707 µM), the IC50 (HSV-1; [4]) was over 10 µg/mL and the IC50 [1] was 6 µg/mL (≈ 12.9 µM).
In the case of `CC(NC(=S)Nc1ccc(NC(=O)c2ccccc2F)c(C#N)c1)c1ccc(C#N)cc1` (stereo not shown) [Example 1042, N-(2-Cyano-4-{3-[1-(4-cyano-phenyl)-ethyl]-thioureido}-phenyl)-2-fluoro-benzamide], the IC50 (VZV strain Ellen; [3]) is reported as 0.54 µg/mL (≈ 1.22 µM), the IC50 (HSV-1; [4]) is reported as 4.2 µg/mL (≈ 9.47 µM) and the IC50 [1] is reported as 2.1 µg/mL (≈ 4.73 µM).
`COc1cc(NC(=S)NC(C)c2ccc(F)cc2)c(C)cc1NC(=O)c1ccccc1F` (stereo not shown) [Example 1031, 2-Fluoro-N-(4-{3-[1-(4-fluoro-phenyl)-ethyl]-thioureido}-2-methoxy-5-methyl-phenyl)-benzamide] was tested, and the IC50 (VZV strain Ellen; [3]) was 0.7 µg/mL (≈ 1.54 µM), the IC50 (HSV-1; [4]) was over 10 µg/mL and the IC50 [1] was over 10 µg/mL.
With `C[C@@H](NC(=S)Nc1ccc(NC(=O)c2ccccc2F)c(C#N)c1)c1ccc(Br)cc1` [Example 1105, N-(4-{3-[(1R)-1-(4-Bromo-phenyl)-ethyl]-thioureido}-2-cyano-phenyl)-2-fluoro-benzamide] the IC50 (VZV strain Ellen; [3]) was over 7.5 µg/mL and the IC50 [1] was 1.1 µg/mL (≈ 2.21 µM).
For `COc1cc(NC(=S)NC(C)c2ccc(F)cc2)ccc1NC(=O)c1ccccc1F` (stereo not shown) [Example 1064, 2-Fluoro-N-(4-{3-[1-(4-fluoro-phenyl)-ethyl]-thioureido}-2-methoxy-phenyl)-benzamide], the IC50 (VZV strain Ellen; [3]) was 0.04 µg/mL (≈ 0.0906 µM), the IC50 (HSV-1; [4]) was 3.9 µg/mL (≈ 8.83 µM) and the IC50 [1] was 4.5 µg/mL (≈ 10.2 µM).
Compound `COc1cc(OC)c(NC(=S)Nc2ccc(NC(=O)c3ccccc3F)c(OC)c2)cc1Cl` [Example 303, N-{4-[3-(5-Chloro-2,4-dimethoxy-phenyl)-thioureido]-2-methoxy-phenyl}-2-fluoro-benzamide] has an inhibition at 10 µg/mL (VZV strain Ellen; [5]) of 15%, an IC50 (VZV strain Ellen; [3]) of over 10 µg/mL and an IC50 (HSV-1; [4]) of over 10 µg/mL. It also gave an IC50 [1] of over 10 µg/mL.
`Cc1cc(NC(=S)NC(C)c2cc3ccccc3o2)ccc1NC(=O)c1ccccc1F` (stereo not shown) [Example 1048, N-{4-[3-(1-Benzofuran-2-yl-ethyl)-thioureido]-2-methyl-phenyl}-2-fluoro-benzamide] was tested, and the IC50 (VZV strain Ellen; [3]) was 0.061 µg/mL (≈ 0.136 µM), the IC50 (HSV-1; [4]) was over 10 µg/mL and the IC50 [1] was 3.4 µg/mL (≈ 7.6 µM).
`COc1cc(OC)c(NC(=S)Nc2ccc(NC(=O)c3ccccc3F)c(C(=O)Nc3ccccc3)c2)cc1Cl` [Example 301, 5-[[[(5-Chloro-2,4-dimethoxyphenyl)amino]thioxomethyl]amino]-2-[(2-fluorobenzoyl)amino]-N-phenyl-benzamide] was tested, and the inhibition at 10 µg/mL (VZV strain Ellen; [5]) was 10%, the IC50 (VZV strain Ellen; [3]) was over 10 µg/mL and the IC50 (HSV-1; [4]) was 10 µg/mL (≈ 17.3 µM). The IC50 [1] was over 10 µg/mL.
Work on `COc1cc(OC)c(NC(=S)Nc2c(Cl)cc(NC(=O)c3ccccc3F)cc2Cl)cc1Cl` [Example 1026, N-{3,5-Dichloro-4-[3-(5-chloro-2,4-dimethoxy-phenyl)-thioureido]-phenyl}-2-fluoro-benzamide] yielded an IC50 (VZV strain Ellen; [3]) of over 10 µg/mL, an IC50 (HSV-1; [4]) of 0.15 µg/mL (≈ 0.284 µM) and an IC50 [1] of over 10 µg/mL.
Compound `COc1cc(OC)c(NC(=S)Nc2cc(OC)c(NC(=O)c3ccccc3F)cc2C)cc1Cl` [Example 286, N-{4-[3-(5-Chloro-2,4-dimethoxy-phenyl)-thioureido]-2-methoxy-5-methyl-phenyl}-2-fluoro-benzamide] has an inhibition at 10 µg/mL (VZV strain Ellen; [5]) of 5%, an IC50 (VZV strain Ellen; [3]) of over 10 µg/mL and an IC50 (HSV-1; [4]) of 2 µg/mL (≈ 3.97 µM). It also gave an IC50 [1] of 40 µg/mL (≈ 79.4 µM).
With `CSc1ccc(NC(=S)Nc2ccc(NC(=O)c3ccccc3F)c(C)c2)cc1Cl` [Example 408, N-{4-[3-(3-Chloro-4-methylsulfanyl-phenyl)-thioureido]-2-methyl-phenyl}-2-fluoro-benzamide] the inhibition at 10 µg/mL (VZV strain Ellen; [5]) was 56%, the IC50 (VZV strain Ellen; [3]) was over 10 µg/mL and the IC50 (HSV-1; [4]) was 0.2 µg/mL (≈ 0.435 µM). It also gave an IC50 [1] of 6 µg/mL (≈ 13 µM).
Work on `CC(NC(=S)Nc1ccc(NC(=O)c2ccccc2F)c(-c2ccccc2)c1)c1ccc(F)cc1` (stereo not shown) [Example 1065, 2-Fluoro-N-(5-{3-[1-(4-fluoro-phenyl)-ethyl)-thioureido}-biphenyl-2-yl)-benzamide] yielded an IC50 (VZV strain Ellen; [2]) of 0.33 µg/mL (≈ 0.677 µM), an IC50 (HSV-1; Human alphaherpesvirus 1, Vero) of 4.9 µg/mL (≈ 10 µM) and an IC50 [1] of 8.1 µg/mL (≈ 16.6 µM).
For `COc1cc(OC)c(NC(=S)Nc2ccc(NC(=O)c3ccccc3F)c(C(=O)O)c2)cc1Cl` [Example 338, 5-[3-(5-Chloro-2,4-dimethoxy-phenyl)-thioureido]-2-(2-fluoro-benzoylamino)-benzoic acid], the inhibition at 10 µg/mL (VZV strain Ellen; Human alphaherpesvirus 3, Fibroblast, read-out: % inhibition 10 ug/ml VZV) was 13%, the IC50 (VZV strain Ellen; [2]) was over 10 µg/mL and the IC50 (HSV-1; Human alphaherpesvirus 1, Vero) was over 50 µg/mL. For the same compound, the IC50 [1] was 35 µg/mL (≈ 69.5 µM).
`C[C@H](NC(=S)Nc1ccc(NC(=O)c2ccccc2F)c(C#N)c1)c1ccc(Br)cc1` [Example 1104, N-(4-{3-[(1S)-1-(4-Bromo-phenyl)-ethyl]-thioureido}-2-cyano-phenyl)-2-fluoro-benzamide] showed an IC50 (VZV strain Ellen; [3]) of 0.09 µg/mL (≈ 0.181 µM) and an IC50 [1] of over 10 µg/mL.
`C[C@H](NC(=O)Nc1ccc(NC(=O)c2ccccc2F)c(C#N)c1)c1ccc(F)cc1` [Example 1106, N-{2-cyano-4-[({[(1S)-1-(4-fluorophenyl)ethyl]amino}carbonyl)amino]phenyl}-2-fluorobenzamide] gave an IC50 (VZV strain Ellen; [3]) of 0.014 µg/mL (≈ 0.0333 µM) and an IC50 [1] of over 10 µg/mL.
`Cc1cc(NC(=O)c2ccccc2F)ccc1NC(=O)N[C@H](C)c1ccc(F)cc1` [Example 1107, 2-fluoro-N-{4-[({[(1R)-1-(4-fluorophenyl)ethyl]amino}carbonyl)amino]-3-methylphenyl}benzamide] gave an IC50 (VZV strain Ellen; [3]) of 0.04 µg/mL (≈ 0.0977 µM) and an IC50 [1] of over 10 µg/mL.
`C[C@H](NC(=S)Nc1ccc(NC(=O)c2cc3ccccc3cn2)c(C(F)(F)F)c1)c1ccc(Br)cc1` [Example 1103, Isoquinline-3-carboxylic acid (4-{3-[(1S)-1-(4-bromo-phenyl)-ethyl]-thioureido}-2-trifluoromethyl-phenyl)-amide] showed an IC50 (VZV strain Ellen; [3]) of 0.12 µg/mL (≈ 0.209 µM) and an IC50 [1] of 5 µg/mL (≈ 8.72 µM).
`CC(NC(=S)Nc1ccc(NC(=O)c2ccccc2F)cc1C(F)(F)F)c1ccc(F)cc1` (stereo not shown) [Example 1102, 2-Fluoro-N-(4-{3-[1-(4-fluoro-phenyl)-ethyl]-thioureido}-3-trifluoromethyl-phenyl)-benzamide] showed an IC50 (VZV strain Ellen; [3]) of over 7.5 µg/mL and an IC50 [1] of 5 µg/mL (≈ 10.4 µM).
Compound `C[C@H](NC(=S)Nc1ccc(NC(=O)c2ccccc2F)c(C#N)c1)c1ccc(F)cc1` [Example 1108, N-{4-[({[(1S)-1-(4-fluorophenyl)ethyl]amino}carbothioyl)amino]-2-cyanophenyl)-2-fluorobenzamide] has an IC50 (VZV strain Ellen; [3]) of 0.03 µg/mL (≈ 0.0687 µM) and an IC50 [1] of over 10 µg/mL.
`C[C@H](NC(=S)Nc1ccc(NC(=O)c2ccccc2F)c(C#N)c1)c1ccc(Cl)cc1` [Example 1109, N-{4-[({[(1S)-1-(4-chlorophenyl)ethyl]amino}carbothioyl)amino]-2-cyanophenyl}-2-fluorobenzamide] was tested, and the IC50 (VZV strain Ellen; [3]) was 0.07 µg/mL (≈ 0.155 µM) and the IC50 [1] was over 10 µg/mL.

From patent publication EP1137632B1, “THIOUREA INHIBITORS OF HERPES VIRUSES” (Wyeth, priority 1998, dated 2000)
